Consider 77 compounds from the METLIN SMRT retention time set (Domingo-Almenara et al. 2019).

The series in a line: gradient 5% acetonitrile 3 min, to 50% in 2 min, to 85% in 15 min, held 3 min, 100 µL/min. To be noted: column: Zorbax Extend-C18 2.1 x 50 mm; eluents: water / acetonitrile, 0.1% formic acid. In outline:
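Over 3 months, pure standards in mixtures of ~100 molecules were run by HPLC coupled to a quadrupole time-of-flight mass spectrometer in positive and negative ionization mode. The column was a Zorbax Extend-C18 (2.1 × 50 mm, 1.8 μm) at 100 μL/min, eluted with water and acetonitrile each holding 0.1% formic acid, with 40 μL dead and 900 μL dwell volumes. Retention time was determined from adduct peaks chosen by software and checked manually.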
Take `Cc1ccc(NC(=O)C2CCCN(c3nnc4cccc(C)n34)C2)cc1F` (configuration not stated): the RP-LC retention time came out at 753 s.
The figure for `CN1c2ccc(Cl)cc2C(=O)NC12CCN(C(=O)NC1CCCCC1)CC2` is 818 s; for `CNC(=O)[C@H]1O[C@@H](n2cnc3c(NCc4cccc(I)c4)nc(Cl)nc32)C(O)[C@H]1O` (some centres not stated) it is 768 s; for `Cc1cc(CN2CCC(CNC(=O)c3ccc(S(=O)(=O)N(C)C)cc3)CC2)c(C)o1` it is 574 s.
In the case of `COCC(=O)Nc1cnc(-c2ccc(C(F)(F)F)cc2)nc1` it was 922 s; in that of `CC1CCC2(CC1)NC(=O)N(CC(=O)NCCCc1ccccc1)C2=O` (configuration not stated), 832 s; in that of `CCn1ncc(Cl)c1C(=O)N1CCCC1c1ccc(F)cc1` (configuration not stated), 912 s.
In the case of `Cc1ccc(C)c(Cn2nnc(C(=O)O)c2-c2ccncc2)c1` it was 650 s; in that of `CC1CCN(S(=O)(=O)c2ccc(-c3nnc(C(=O)NC4CCCCC4)o3)cc2)CC1`, 1120 s; in that of `O=C(OCc1cccnc1)c1cn(-c2cccc(F)c2)c(=O)c2ccccc12`, 753 s.
The compound `CC(C)(C)c1ccc2c(c1)N(S(=O)(=O)c1ccccc1)CC(C(=O)NC1CC1)O2` (configuration not stated) returned an RP-LC retention time of 1080 s.
The figure for `CCCSc1nnc(CNC(=O)c2ccccc2F)n1-c1cccc(C(F)(F)F)c1` is 831 s; for `COCCCNC(=O)C1(C)Cn2nc(-c3ccccc3)cc2C(=O)N1Cc1cccc(OC)c1` (configuration not stated) it is 887 s.
The figure for `CCCNC(=O)C1CCN(c2ccc(SCC(=O)Nc3ccc(C(F)(F)F)cc3)nn2)CC1` is 728 s.
The figure for `CCOc1ccc(CC(=O)N2CCN(c3ccc(NC(=O)c4ccccc4)nn3)CC2)cc1` is 667 s; for `Cc1ccc(CNC(=O)C2(C)CN(S(C)(=O)=O)CC(=O)N2CCC(C)C)cc1` (configuration not stated) it is 865 s.
In turn, `Cc1ccn(-c2ccc(Nc3ccc(NC(=O)c4ccc(Br)o4)cc3)nn2)n1` returned an RP-LC retention time of 776 s.
The figure for `O=C(Nc1cccc2nsnc12)C1CCN(c2ccc(-c3ccc(F)cc3)nn2)CC1` is 681 s; for `CCC(C(=O)Nc1ccc(-c2nc(Cn3cccn3)c(C)o2)cc1)c1ccccc1` (configuration not stated) it is 962 s; for `Cc1cc(=O)n(CC(=O)Nc2ccc(Br)cc2F)c(N2CCN(c3ccccc3)CC2)n1` it is 978 s.
In the case of `CCOc1ccccc1NS(=O)(=O)c1cc(-c2cc(C(F)(F)F)on2)sc1C` it was 1120 s.
The figure for `COC(=O)c1cc2c(=O)n(Cc3ccccn3)ccc2nc1C` is 638 s.
`COc1ncccc1CNC(=O)c1ccc(C)nc1` had an RP-LC retention time of 562 s.
As to `CNC(=O)C1CCCN(c2nc3ncn(CC(=O)Nc4ccc(C(F)(F)F)cc4)c(=O)c3s2)C1` (configuration not stated), the RP-LC retention time was determined as 711 s.
Compound `N#Cc1ccc(C(=O)NC2CCN(c3cc(-c4cccs4)[nH]n3)C2)cc1` (configuration not stated) showed an RP-LC retention time of 700 s.
The figure for `CC1(C)Cc2cccc(OCC(=O)Nc3ncc([N+](=O)[O-])s3)c2O1` is 906 s.
In the case of `CCOC(=O)c1noc2nc(C)nc(NC3CCN(Cc4ccccc4)CC3)c12` it was 648 s.
In the case of `CCc1nnc2cc(N3CCN(C(=O)Nc4cccc(C)c4)CC3)cnn12` it was 593 s; in that of `Clc1ccccc1-c1nc(-c2ccncc2)no1`, 1040 s.
As to `Cc1ccc(CNC(=O)CCc2c(C)nn(-c3cc(N4CCOCC4)ncn3)c2C)o1`, the RP-LC retention time turned out to be 700 s.
The figure for `COc1ccc(C2(C(=O)N3CCOc4ccc(N5CCOCC5)cc4C3)CC2)cc1` is 794 s.
The figure for `COc1ccc(Cl)cc1N1CC(c2nc(-c3ccc(C)cc3)no2)CC1=O` (configuration not stated) is 1050 s; for `CCn1c(=O)c2c(cc(C)n2C)n(CC(=O)Nc2ccc(C)c(F)c2)c1=O` it is 855 s.
Regarding `Cc1nnc2ccc(N3CCN(C(=O)COc4ccc5c(c4)OCO5)CC3)nn12`, the RP-LC retention time stood at 617 s.
The figure for `CC(=O)c1ccc(NC(=O)CCn2nc(C)nc2C)cc1` is 557 s; for `COc1cccc(NC(=O)C2CCN(S(=O)(=O)c3ccc4c(c3)CCCN4C(C)=O)CC2)c1` it is 836 s.
In the case of `Cc1ccc2[nH]cc(CCNC(=O)c3cc(-c4cccnc4)nc4ccccc34)c2c1` it was 784 s; in that of `O=C(NC1CCN(c2cc(-c3ccccc3)[nH]n2)C1)c1cc(F)ccc1Cl` (configuration not stated), 708 s; in that of `CCn1cc(-c2nc(C(=O)NCc3ccc(F)c(Cl)c3)cs2)c2cccnc21`, 1050 s.
The figure for `Cc1cc2nn(CC(=O)Nc3ccc(Cl)cc3)c(=O)n2c(Nc2ccccc2)n1` is 1050 s; for `CCOC(=O)c1sc(NC(=O)c2cc(OC)ccc2OC)cc1C` it is 1000 s.
For `COc1ccc(-c2nnc(COc3cccc(NC(=O)c4ccsc4)c3)o2)cc1`, the RP-LC retention time amounted to 914 s.
The figure for `O=C(Cn1nc(N2CCSCC2)c2ccccc2c1=O)Nc1cccc(Br)c1` is 1030 s; for `CC(C)NC(=O)CN1C(=O)C2CCCCN2c2ccc(C(=O)N3CCCCC3)cc21` (configuration not stated) it is 735 s.
The figure for `CCc1ccc(C(=O)N2CC3CN(S(=O)(=O)c4cccc(C)c4)CC(C2)O3)cc1` is 925 s.
The compound `CCOc1ccc(-c2noc(Cn3c(=O)n(-c4ccccc4C)c(=O)c4sccc43)n2)cc1OC` yielded an RP-LC retention time of 960 s.
In the case of `COc1ccc2nc(SCC(=O)N3CCC(C(N)=O)CC3)nc(C)c2c1` it was 626 s; in that of `COc1cc(OC)cc(C(=O)N2CCCC2c2nc(-c3ccc(OC)c(OC)c3)no2)c1` (configuration not stated), 879 s; in that of `C[C@@H]1CC[C@H]2[C@H](C)[C@H]3CC[C@@]4(O)[C@@H]5CC(=O)[C@H]6CC(=O)CC[C@]6(C)[C@H]5C[C@H]4[C@@H]3CN2C1`, 636 s.
Take `CCOCCCNC(=O)C1(C)Cn2c(ccc2-c2ccco2)C(=O)N1c1ccc(F)cc1` (configuration not stated): the RP-LC retention time was 808 s.
Consider `COc1ccc(-n2c(=O)c3sccc3n(Cc3nc(-c4ccccc4Cl)no3)c2=O)cc1`, for which the RP-LC retention time was found to be 946 s.
The figure for `COc1ccc2cc(C(=O)N3CCCC(c4nnc(-c5ccccc5F)s4)C3)[nH]c2c1` (configuration not stated) is 918 s; for `Cc1ccc2c(Nc3ccc(S(N)(=O)=O)cc3)c(C(=O)N3CCSCC3)cnc2n1` it is 1370 s.
The compound `CCc1c(C(=O)O)nnn1Cc1ccccc1C` registered an RP-LC retention time of 728 s.
In the case of `CCNC(=O)C1CCN(c2nc3ccc(-c4ccsc4)nc3s2)CC1` it was 799 s.
In the case of `Cn1nc(-c2nc(C3CC3)no2)c2c1CCN(S(=O)(=O)c1ccc(F)cc1)C2` it was 925 s; in that of `COC(=O)c1c(C)[nH]c(C(=O)N2CCCC(C(=O)NCCN(C)C3CCCCC3)C2)c1C` (configuration not stated), 626 s.
The figure for `CC(C)c1cnc2c(c1SCc1cccnc1)c(=O)n(C)c(=O)n2C` is 691 s.
With `O=C(NCc1ccc(F)c(Cl)c1)c1sc2ncccc2c1-n1cccc1`, the RP-LC retention time came out at 1050 s.
Consider `CCCCn1cc(S(=O)(=O)NCc2cccc(C(F)(F)F)c2)c2cccnc21`, for which the RP-LC retention time came out at 1050 s.
The compound `COc1ccc(S(=O)(=O)N2CCC[C@@H]2C(=O)NCc2csc(C)n2)cc1OC` gave an RP-LC retention time of 662 s.
The figure for `CN1CCN(C2Cc3ccccc3Sc3ccc(Cl)cc32)CC1` (configuration not stated) is 872 s; for `COc1ccc(NC(=O)Cn2c(=O)c3cc(-c4cccs4)nn3c3ncccc32)cc1` it is 810 s; for `Cc1cc(C)c(S(=O)(=O)N2CCC(C(=O)NCCc3csc(-c4ccccc4)n3)CC2)cc1C` it is 1070 s.
The figure for `Cn1c(=O)n(CC(=O)O)c(=O)c2c1nc1n2CCCN1c1ccc(Br)cc1` is 751 s; for `O=C(Nc1nc2ccccc2n1CCN1CCOCC1)c1cccc([N+](=O)[O-])c1` it is 581 s; for `O=C(NCCCc1ccccc1)C(=O)NCc1n[nH]c(=O)c2ccccc12` it is 746 s.
As to `Cc1ccc(CNC(=O)c2ccc(CN3CCN(C4CCCC4)C(=O)C3=O)cc2)o1`, the RP-LC retention time came out at 728 s.
The figure for `COCCc1noc(-c2cnc3nc(C)ccc3c2NCc2ccccc2C)n1` is 653 s; for `Cc1cc(C)cc(S(=O)(=O)N2CCC(n3cnc4ccc(C)cc4c3=O)CC2)c1` it is 1010 s.
Compound `O=C(CSc1nnc(-c2cccnc2)o1)c1ccc(OC(F)F)cc1` showed an RP-LC retention time of 780 s.
The figure for `O=C(Nc1nccnc1C(=O)NC1CC1)c1ccccc1` is 732 s; for `O=C1CC(c2nc(-c3ccccc3F)no2)CN1c1cccc(Cl)c1` (configuration not stated) it is 977 s.
`COCCNS(=O)(=O)c1cccc(-c2nnc(-c3ccc(C)cc3)o2)c1`: the RP-LC retention time worked out at 880 s.
The figure for `CCOC(=O)CCNC(=O)N1CCCN(C)c2ccccc21` is 623 s; for `O=C(CSc1ccc(N2CCCC(C(=O)NC3CC3)C2)nn1)Nc1ccccc1F` (configuration not stated) it is 643 s; for `COc1ccc(Cn2nnc3cc(C(=O)NCC4CCCO4)ccc32)cc1` (configuration not stated) it is 733 s.
